Assay results as given in patent publication US9102670B2, “Pyrido-, pyrazo- and pyrimido-pyrimidine derivatives as mTOR inhibitors” (KuDOS Pharmaceuticals Limited, priority 2006, dated 2015).
Read-outs that look alike come from different tables or passages of the source.

System: phosphorylation of Serine 473 in Akt
Assay: In Vitro Phospho-Ser473 Akt Assay in MDA-MB-468 cells
Format: cell-based
Conditions: Homo sapiens
[1] = MDA-MB-468, read-out: IC50 values against mTOR, phospho-Ser473 Akt assay, MDA-MB-468 cells
[2] = MDA-MB-468, read-out: IC50 values against mTOR, phospho-Ser473 Akt assay, MDA-MB-468 cells, upper bound

Row | SMILES | IC50 [1] [nM] | IC50 [2] [nM]
1 | C[C@H]1COCCN1c1nc(N2CCOC[C@@H]2C)c2ccc(-c3ccc(F)cc3)nc2n1 [Example 1aa] | < 100 | 
2 | C[C@H]1COCCN1c1nc(N2CCOC[C@@H]2C)c2ccc(-c3ccc(F)c(C(N)=O)c3)nc2n1 [Example 1ab] | < 300 | 
3 | CCCNC(=O)c1cc(-c2ccc3c(N4CCOC[C@@H]4C)nc(N4CCOC[C@@H]4C)nc3n2)ccc1F [Example 1ac] | < 100 | 
4 | CNC(=O)c1cc(-c2ccc3c(N4CCOC[C@@H]4C)nc(N4CCOC[C@@H]4C)nc3n2)ccc1F [Example 1ae] | < 100 | 
5 | CCNC(=O)c1cc(-c2ccc3c(N4CCOC[C@@H]4C)nc(N4CCOC[C@@H]4C)nc3n2)ccc1F [Example 1af] | < 100 | 
6 | C[C@H]1COCCN1c1nc(N2CCOC[C@@H]2C)c2ccc(-c3ccc(F)c(C(=O)NCCO)c3)nc2n1 [Example 1ag] | < 100 | 
7 | C[C@H]1COCCN1c1nc(N2CCOC[C@@H]2C)c2ccc(-c3ccc(F)nc3)nc2n1 [Example 1ah] |  | < 1000
8 | CC(C)NC(=O)c1cccc(-c2ccc3c(N4CCOC[C@@H]4C)nc(N4CCOC[C@@H]4C)nc3n2)c1 [Example 1al] | < 100 | 
9 | C[C@H]1COCCN1c1nc(N2CCOC[C@@H]2C)c2ccc(-c3ccc(S(C)(=O)=O)cc3)nc2n1 [Example 1am] | < 300 | 
10 | C[C@H]1COCCN1c1nc(N2CCOC[C@@H]2C)c2ccc(-c3ccc(C(N)=O)cc3)nc2n1 [Example 1ao] | < 300 | 
11 | C[C@H]1COCCN1c1nc(N2CCOC[C@@H]2C)c2ccc(-c3ccncc3)nc2n1 [Example 1ar] |  | < 1000
12 | C[C@H]1COCCN1c1nc(N2CCOC[C@@H]2C)c2ccc(-c3cccc(C(N)=O)c3)nc2n1 [Example 1as] | < 100 | 
13 | C[C@H]1COCCN1c1nc(N2CCOC[C@@H]2C)c2ccc(-c3cccc(NS(C)(=O)=O)c3)nc2n1 [Example 1at] | < 100 | 
14 | C[C@H]1COCCN1c1nc(N2CCOC[C@@H]2C)c2ccc(-c3ccnc(F)c3)nc2n1 [Example 1au] |  | < 1000
15 | C[C@H]1COCCN1c1nc(N2CCOC[C@@H]2C)c2ccc(-c3cccc(C#N)c3)nc2n1 [Example 1aw] |  | < 1000
16 | C[C@H]1COCCN1c1nc(N2CCOC[C@@H]2C)c2ccc(-c3cc(F)nc(F)c3)nc2n1 [Example 1ay] | < 300 | 
17 | COC(=O)c1cccc(-c2ccc3c(N4CCOC[C@@H]4C)nc(N4CCOC[C@@H]4C)nc3n2)c1 [Example 1ba] | < 100 | 
18 | COCc1cccc(-c2ccc3c(N4CCOC[C@@H]4C)nc(N4CCOC[C@@H]4C)nc3n2)c1 [Example 1bb] | < 100 | 
19 | C[C@H]1COCCN1c1nc(N2CCOC[C@@H]2C)c2ccc(-c3ccc(F)c(CO)c3)nc2n1 [Example 1bc] | < 100 | 
20 | C[C@H]1COCCN1c1nc(N2CCOC[C@@H]2C)c2ccc(-c3cccc(S(N)(=O)=O)c3)nc2n1 [Example 1bd] | < 300 | 
21 | COCCNC(=O)c1cccc(-c2ccc3c(N4CCOC[C@@H]4C)nc(N4CCOC[C@@H]4C)nc3n2)c1 [Example 1be] | < 100 | 
22 | C[C@H]1COCCN1c1nc(N2CCOC[C@@H]2C)c2ccc(-c3cccc(C(=O)N4CCN(C)CC4)c3)nc2n1 [Example 1bf] |  | < 1000
23 | COC(=O)c1cc(-c2ccc3c(N4CCOC[C@@H]4C)nc(N4CCOC[C@@H]4C)nc3n2)ccc1OC [Example 1bg] | < 100 | 
24 | C[C@H]1COCCN1c1nc(N2CCOC[C@@H]2C)c2ccc(-c3ccc(F)c(NS(C)(=O)=O)c3)nc2n1 [Example 1bk] | < 300 | 
25 | C[C@H]1COCCN1c1nc(N2CCOC[C@@H]2C)c2ccc(-c3ccc(C#N)cc3)nc2n1 [Example 1bl] | < 100 | 
26 | C[C@H]1COCCN1c1nc(N2CCOC[C@@H]2C)c2ccc(-c3ccc4[nH]ccc4c3)nc2n1 [Example 1bm] | < 100 | 
27 | COc1ccc(-c2ccc3c(N4CCOC[C@@H]4C)nc(N4CCOC[C@@H]4C)nc3n2)cc1 [Example 1bo] | < 300 | 

Row | SMILES | IC50 [1] [nM] | IC50 [2] [nM]
28 | C[C@H]1COCCN1c1nc(N2CCOC[C@@H]2C)c2ccc(-c3ccc(Cl)cc3)nc2n1 [Example 1bp] | < 300 | 
29 | Cc1cccc(-c2ccc3c(N4CCOC[C@@H]4C)nc(N4CCOC[C@@H]4C)nc3n2)c1 [Example 1br] | < 100 | 
30 | COc1ccc(-c2ccc3c(N4CCOC[C@@H]4C)nc(N4CCOC[C@@H]4C)nc3n2)cc1F [Example 1bs] | < 100 | 
31 | C[C@H]1COCCN1c1nc(N2CCOC[C@@H]2C)c2ccc(-c3cccnc3)nc2n1 [Example 1bu] |  | < 1000
32 | C[C@H]1COCCN1c1nc(N2CCOC[C@@H]2C)c2ccc(-c3ccoc3)nc2n1 [Example 1bv] | < 100 | 
33 | C[C@@H]1CN(c2nc(N3CCOC[C@@H]3C)c3ccc(-c4cccc(CO)c4)nc3n2)C[C@H](C)O1 [Example 1bx] | < 300 | 
34 | C[C@@H]1CN(c2nc(N3CCOC[C@@H]3C)c3ccc(-c4ccc(CO)cc4)nc3n2)C[C@H](C)O1 [Example 1by] | < 300 | 
35 | C[C@@H]1CN(c2nc(N3CCOC[C@@H]3C)c3ccc(-c4cccc(O)c4)nc3n2)C[C@H](C)O1 [Example 1bz] | < 100 | 
36 | C[C@@H]1CN(c2nc(N3CCOC[C@@H]3C)c3ccc(-c4ccncc4)nc3n2)C[C@H](C)O1 [Example 1ce] |  | < 1000
37 | C[C@@H]1CN(c2nc(N3CCOC[C@@H]3C)c3ccc(-c4ccoc4)nc3n2)C[C@H](C)O1 [Example 1cf] | < 300 | 
38 | C[C@@H]1CN(c2nc(N3CCOC[C@@H]3C)c3ccc(-c4ccc(O)cc4)nc3n2)C[C@H](C)O1 [Example 1cg] | < 100 | 
39 | C[C@@H]1CN(c2nc(N3CCOC[C@@H]3C)c3ccc(-c4ccc([N+](=O)[O-])cc4)nc3n2)C[C@H](C)O1 [Example 1ci] | < 300 | 
40 | COc1ccc(-c2ccc3c(N4CCOC[C@@H]4C)nc(N4C[C@@H](C)O[C@@H](C)C4)nc3n2)cc1 [Example 1cj] | < 300 | 
41 | C[C@H]1COCCN1c1nc(N2CCOC[C@@H]2C)c2ccc(-c3ccc4nc[nH]c(=O)c4c3)nc2n1 [Example 1cl] |  | < 1000
42 | CNC(=O)c1ccc(-c2ccc3c(N4CCOC[C@@H]4C)nc(N4CCOC[C@@H]4C)nc3n2)cc1F [Example 1cv] | < 300 | 
43 | C[C@H]1COCCN1c1nc(N2CCOC[C@@H]2C)c2ccc(-c3ccccc3)nc2n1 [Example 1d] | < 100 | 
44 | C[C@H]1COCCN1c1nc(N2CCOC[C@@H]2C)c2ccc(-c3ccc(O)cc3)nc2n1 [Example 1e] | < 100 | 
45 | Cc1ccc(-c2ccc3c(N4CCOC[C@@H]4C)nc(N4CCOC[C@@H]4C)nc3n2)cc1 [Example 1f] | < 100 | 
46 | C[C@H]1COCCN1c1nc(N2CCOC[C@@H]2C)c2ccc(-c3ccc(CO)cc3)nc2n1 [Example 1g] | < 100 | 
47 | C[C@H]1COCCN1c1nc(N2CCOC[C@@H]2C)c2ccc(-c3cccc(O)c3)nc2n1 [Example 1h] | < 100 | 
48 | C[C@H]1COCCN1c1nc(N2CCOC[C@@H]2C)c2ccc(-c3cccc(CO)c3)nc2n1 [Example 1i] | < 100 | 
49 | C[C@@H]1CN(c2nc(N3CCOC[C@@H]3C)c3ccc(-c4ccsc4)nc3n2)C[C@H](C)O1 [Example 1k] | < 100 | 
50 | COc1ccc(-c2ccc3c(N4CCOC[C@@H]4C)nc(N4CCOCC4)nc3n2)cc1CO [Example 1l] | < 100 | 
51 | C[C@H]1COCCN1c1nc(N2CCOC[C@@H]2C)c2ccc(-c3cccnc3F)nc2n1 [Example 1p] | < 300 | 
52 | C[C@H]1COCCN1c1nc(N2CCOC[C@@H]2C)c2ccc(-c3ccc(N4CCOCC4)nc3)nc2n1 [Example 1q] | < 300 | 
53 | C[C@H]1COCCN1c1nc(N2CCOC[C@@H]2C)c2ccc(-c3cnn(C)c3)nc2n1 [Example 1s] | < 100 | 
